Test results as given in article PMC8291587, “Guanidine Derivatives: How Simple Structural Modification of Histamine H3R Antagonists Has Led to the Discovery of Potent Muscarinic M2R/M4R Antagonists” (ACS Chemical Neuroscience, 2021).

How the values were obtained:
[1] = system: M2R/M3R; test: Ex vivo screening of muscarinic M2R/M3R antagonists on isolated guinea pig ileum (methacholine-induced contraction); details: methacholine as agonist
Protocol: Another group of guinea pig intestinal receptors able to regulate smooth muscle contraction is that of the muscarinic receptors, including M2R and M3R. All compounds were tested on the muscarinic receptors using the same animal model. This approach is similar to measuring histamine H1R antagonist activity. Methacholine was used as a receptor agonist, while 1,1-dimethyl-4-diphenylacetoxypiperidinium iodide (4-DAMP) was used as a reference M3R antagonist. As methacholine is not selective according to M2R and M3R, it is not possible to precisely specify which one was responsible for the effect observed on the tissue preparations. Some authors often attribute the results to the minor M3R subtype (gpM2R:M3R = 4:1 or 5:1), which is generally associated with the contractions,[38] but such an overinterpretation may be misleading, as indicated by our further hM1R-hM5R radioligand binding assay results shown in Table 2. […] These findings partially explain the influence of ADS10227 on the contractility of guinea pig ileum following electrical stimulation. […] In subsequent studies, we tried to clarify this.
Male guinea pigs, weighing 300–400 g, were euthanized by a blow to the neck. A 20–30 cm length of the distal ileum, apart from the terminal 5 cm, was rapidly removed and placed in phosphate buffer at room temperature (pH 7.4) containing (mM) NaCl (136.9), KCl (2.6), KH2PO4 (1.47), Na2HPO4 (9.58), and indomethacin (1 × 10^–6 mol/L)). The intraluminal content was rinsed, and the isolated intestine was cut into 1.5–2 cm segments. The preparations were mounted isotonically in a 20 mL organ bath filled with Tyrode’s buffer: composition (mM) NaCl (137), KCl (2.7), MgCl2·6H2O (1.0), CaCl2 (1.8), NaH2PO4·H2O (0.4), NaHCO3 (11.9), glucose (5.61), and indomethacin (3 × 10^–7 mol/L). The solution was continuously bubbled with a 95% O2:5% CO2 mixture and maintained at 37 °C under a constant load of 0.5 g (Hugo Sachs Hebel–Messvorsatz (Tl-2)/HF-modem; Hugo Sachs Elektronik, Hugstetten, Germany) connected to a pen recorder (Kipp & Zonen BD41, Delft, Holland). During an equilibration period of 40 min, Tyrode’s buffer was changed every 10 min. The first cumulative concentration–response curve was determined for methacholine (10 nM to 3 mM) at increasing concentrations spaced by 3- or 3.3-fold. The second to the fourth (or fifth) curves were measured in the presence of an increasing concentration of antagonist (incubation time 20 min). The pA2 values were calculated according to Arunlakshana and Schild.[37] Statistical analysis was carried out with the Students’ t test. In all tests, a p < 0.05 was considered statistically significant.

[2] = target: T1, H1R (Cavia porcellus, UniProt P31389); test: Ex vivo screening of histamine H1R antagonists on guinea pig ileum, variant without atropine; details: isolated guinea pig ileum, histamine as agonist, read-out: H1R pA2 gpi ± sem (converted)
T1 construct: from tissue; host or cells: isolated distal ileum of male guinea pigs
Protocol: (§1) The second histamine receptor located in the guinea pig ileum is H1R. […] The H1R antagonistic effect was measured on isolated guinea pig ileum stimulated to contract by histamine.[37] To assess and exclude the influence of the ADS compounds on muscarinic receptors, two test variations were used: one with the addition of 0.05 μM atropine and one without.
(§2) Male guinea pigs, weighing 300–400 g, were euthanized by a blow to the neck. A 20–30 cm length of the distal ileum, apart from the terminal 5 cm, was rapidly removed and placed in phosphate buffer at room temperature (pH 7.4) containing (mM) NaCl (136.9), KCl (2.6), KH2PO4 (1.47), Na2HPO4 (9.58), and indomethacin (1 × 10^–6 mol/L). The intraluminal content was rinsed, and the isolated intestine was cut into 1.5–2 cm segments. The preparations were mounted isotonically in a 20 mL organ bath filled with Krebs buffer: composition (mM) NaCl (118), KCl (5.6), MgSO4 (1.18), CaCl2 (2.5), NaH2PO4·H2O (1.28), NaHCO3 (25), glucose (5.55), and indomethacin (3 × 10^–7 mol/L). […] The solution was continuously bubbled with a 95% O2:5% CO2 mixture and maintained at 37 °C under a constant load of 0.5 g (Hugo Sachs Hebel–Messvorsatz (Tl-2)/HF-modem; Hugo Sachs Elektronik, Hugstetten, Germany) connected to a pen recorder (Kipp & Zonen BD41, Delft, Holland). During an equilibration period of 40 min, Krebs buffer was changed every 10 min. The first cumulative concentration–response curve was determined for histamine (10 nM to 10 mM) at increasing concentrations spaced by 3- or 3.3-fold. The second to the fourth (or fifth) curves were measured in the presence of an increasing concentrations of antagonist (incubation time 10 min). The pA2 values were calculated according to Arunlakshana and Schild.[37] Statistical analysis was carried out with the Students’ t test. In all tests, a p < 0.05 was considered statistically significant.

[3] = target: T1, H1R; test: Ex vivo screening of histamine H1R antagonists on guinea pig ileum, variant with 0.05 μM atropine; details: isolated guinea pig ileum, histamine as agonist, read-out: H1R+atropine pA2 gpi ± sem (converted)
Protocol: as §1, §2

[4] = system: electrically stimulated guinea pig ileum; test: Decrease of contractility in electrically stimulated guinea pig ileum (-log EC50 determination); details: electrically stimulated guinea pig ileum; for EC50: Cavia porcellus, read-out: Decrease of contractility (-logEC50 ± sem) (converted)
Protocol: A standard ex vivo assay based on the relaxant response of histamine H3R agonists to electrically driven guinea pig ileum was used to test the influence of ADS compounds on the reduction of electrically evoked tissue contraction. […] The −log EC50 value for RAMH and ADS compounds were evaluated. […] Following this, we decided to evaluate the ADS series as potential M2R/M3R ligands on the isolated guinea pig ileum.
Male guinea pigs, weighing 300–400 g, were euthanized by a blow to the neck. A 20–30 cm length of the distal ileum, apart from the terminal 5 cm, was rapidly removed and placed in phosphate buffer at room temperature (pH 7.4) containing (mM) NaCl (136.9), KCl (2.6), KH2PO4 (1.47), Na2HPO4 (9.58), and indomethacin (1 × 10^–6 mol/L)). The intraluminal content was rinsed, and the isolated intestine was cut into 1.5–2 cm segments. The preparations were mounted between two platinum electrodes isotonically in a 20 mL organ bath filled with Krebs buffer: composition (mM) NaCl (118), KCl (5.6), MgSO4 (1.18), CaCl2 (2.5), NaH2PO4·H2O (1.28), NaHCO3 (25), glucose (5.55), and indomethacin (3 × 10^–7 mol/L). The solution was continuously bubbled with a 95% O2:5% CO2 mixture and maintained at 37 °C under a constant load of 1.0 g (Hugo Sachs Hebel–Messvorsatz (Tl-2)/HF-modem; Hugo Sachs Elektronik, Hugstetten, Germany) connected to a pen recorder (Kipp & Zonen BD41, Delft, Holland). During an equilibration period of 60 min, Krebs buffer was changed every 10 min. Following this, the preparations were continuously stimulated at 15–20 V, at a frequency of 0.1 Hz for a duration of 0.5 ms, with rectangular-wave electrical pulses (Grass Stimulator S-88; Grass Instruments Co., Quincy, Massachusetts, USA). […] Cumulative concentration–response curve was determined to RAMH or tested agonist (10 nM to 10 mM) at increasing concentrations spaced by 3- or 3.3-fold. The agonist potency is expressed as pD2 value (−log EC50) ± sem.

[5] = target: T2, hH3R (Homo sapiens, UniProt Q9Y5N1); test: hH3R radioligand displacement binding assay ([3H]-Nα-methylhistamine, HEK-293 cell membranes); details: for Ki: [3H]-Nα-methylhistamine, HEK-293 membranes, read-out: hH3R -log(Ki) ± sem (converted)
T2 construct: expressed in transfected cells; membrane fractions
Protocol: [^3H]-N^α-Methylhistamine was used as a radiolabeled ligand.
The radioligand displacement binding assay was performed in membrane fractions of HEK-293 cells stably expressing hH3R. Cell cultivation and membrane preparation were performed according to Kottke et al.[43] […] The total assay volume was set to 200 μL. The compounds were tested in several appropriate concentrations between 100 μM and 0.1 nM. Pipetting was partly done by Freedom Evo (Tecan). […] The membrane fraction (20 μg/well), test compounds, and radiolabeled ligand were incubated for 90 min at 25 °C while shaking. The bound radioligand was separated from free radioligand by filtration through GF/B filters pretreated with 0.3% (m/v) polyethylenimine using a cell harvester. Radioactivity was determined by liquid scintillation counting using a MicroBeta Trilux (PerkinElmer). The data were obtained in duplicates in at least three independent experiments. Nonspecific binding was subtracted from the raw data to calculate specific-binding values. The evaluation was performed with GraphPad Prism 6.1 (San Diego, CA, USA) using nonlinear regression (one-site competition with a logarithmic scale). The Ki values were calculated from the IC50 values using the Cheng–Prusoff equation.[44] The statistical calculations were performed on −log Ki. The mean values and 95% confidence intervals were transformed to nanomolar concentrations.

[6] = system: M2R; set-up: method as in PMID 11421251; details: cited from earlier work

T2 sequence (Q9Y5N1 whole entry): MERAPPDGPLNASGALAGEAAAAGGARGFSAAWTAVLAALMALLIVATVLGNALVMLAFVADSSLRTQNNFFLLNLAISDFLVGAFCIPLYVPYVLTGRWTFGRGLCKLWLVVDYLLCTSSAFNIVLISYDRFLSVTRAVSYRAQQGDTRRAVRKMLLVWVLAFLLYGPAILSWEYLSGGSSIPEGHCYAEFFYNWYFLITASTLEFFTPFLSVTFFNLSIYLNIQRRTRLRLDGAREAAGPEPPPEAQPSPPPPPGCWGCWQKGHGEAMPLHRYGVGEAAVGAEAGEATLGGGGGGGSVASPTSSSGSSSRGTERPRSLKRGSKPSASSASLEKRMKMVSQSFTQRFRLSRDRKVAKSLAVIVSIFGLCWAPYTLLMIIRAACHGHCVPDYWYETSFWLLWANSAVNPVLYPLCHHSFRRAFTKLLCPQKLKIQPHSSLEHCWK
T1 sequence (P31389 whole entry): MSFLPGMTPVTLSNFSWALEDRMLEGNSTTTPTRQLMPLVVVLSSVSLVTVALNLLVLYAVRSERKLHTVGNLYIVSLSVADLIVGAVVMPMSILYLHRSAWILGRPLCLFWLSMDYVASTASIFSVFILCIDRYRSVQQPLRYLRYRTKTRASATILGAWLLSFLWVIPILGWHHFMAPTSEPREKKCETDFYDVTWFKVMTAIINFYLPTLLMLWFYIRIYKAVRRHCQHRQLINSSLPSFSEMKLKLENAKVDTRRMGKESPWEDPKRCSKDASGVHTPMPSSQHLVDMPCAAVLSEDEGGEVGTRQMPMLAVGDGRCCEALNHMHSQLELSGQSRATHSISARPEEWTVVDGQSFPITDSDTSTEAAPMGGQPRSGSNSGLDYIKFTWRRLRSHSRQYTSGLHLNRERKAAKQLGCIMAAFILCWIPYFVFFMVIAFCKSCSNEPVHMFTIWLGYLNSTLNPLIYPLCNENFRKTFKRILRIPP

Structure (SMILES) | M2R/M3R pA2 gpi ± sem [1] | Kb [2] [nM] | Kb [3] [nM] | EC50 [4] [nM] | Ki [5] [nM] | Decrease of contractility (-logEC50 ± sem) [4] | intrinsic activity (maximal response as fraction of maximal response of the system) ([4]; from concentration–response curves) | effective dose in the rodent cognition model lower than that known to increase heart rate in rats [6] [fold] | Kd ([5]; radioligand used at 2 nM) [nM]
C[N+]1(C)CCC(OC(=O)C(c2ccccc2)c2ccccc2)CC1.[I-] [4-DAMP, 1,1-dimethyl-4-diphenylacetoxypiperidinium iodide, reference compound] | 9.05 ±0.11 | – | – | – | – | – | – | – | –
N=C(N)N(CCCCN1CCN(Cc2ccc(COc3ccccc3)cc2)CC1)Cc1ccc(C(F)(F)F)cc1 [ADS10183] | 5.83±0.22 | 182 | 151 | 2290 | 1660 | – | – | – | –
N=C(N)N(CCCCN1CCN(Cc2ccc(COc3ccccc3)cc2)CC1)Cc1ccccc1 [ADS10185] | 5.77±0.15 | 105 | 100 | 3090 | 1350 | – | – | – | –
[H]/N=C(\N)N(CCCCN1CCN(CC2CCC(COc3ccccc3)CC2)CC1)Cc1ccc(C(F)(F)F)cc1 (stereo not drawn) [ADS10207] | 5.68±0.15 | 75.9 | 120 | 724 | 1620 | – | – | – | –
N=C(N)N(CCCCN1CCN(Cc2ccc(Oc3ccccc3)cc2)CC1)Cc1ccc(C(F)(F)F)cc1 [ADS10210] | 5.83±0.14 | 60.3 | 97.7 | 575 | 1660 | – | – | – | –
N=C(N)N(CCCCN1CCN(C[C@H]2CC[C@H](COc3ccccc3)CC2)CC1)Cc1ccccc1 [ADS10283] | 6.02±0.07 | 145 | 166 | 832 | 2040 | – | – | – | –
C[C@@H](N)Cc1c[nH]cn1 [RAMH, (R)(−)-α-methylhistamine, reference compound] | – | – | – | – | – | 7.70±0.07 | 0.82 | – | –
COc1ccc(S(=O)(=O)c2ccc(C3(C4CCN(C5CCN(C(=O)c6cccc(C)c6N)CC5)CC4)OCCO3)cc2)cc1 [SCH-217443] | – | – | – | – | – | – | – | 30 | –
CNCCc1cnc[nH]1 [[^3H]N^α-methylhistamine, reference compound] | – | – | – | – | – | – | – | – | 3.08
